According to PubChem BioAssay AID1919017 (Molecular Pharmacology Branch, DTP, NCI, 2023):

Tested on: SW1271 complex spheroids with HUVEC/MSC, growth, % test/control
Assay: Anticancer human tumor SW1271 cell line growth inhibition [AhR];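 note: spheroids exposed to agents for 7 days before readout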
Details: for IC50: curve of first compound; for viability, T/C: stronger effect = lower value
Method in brief: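 Agents were dosed in half-log steps down from roughly clinical Cmax, or from 10 microM where Cmax was unknown, alone and with AhR antagonists. Read-out: percent test/control growth of tumor spheroids containing HUVEC and MSC stromal cells.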

[1] = second compound 0.1 µM, first compound 0.000949 µM
[2] = second compound 0.1 µM, first compound 0.003 µM
[3] = second compound 0.1 µM, first compound 0.00949 µM
[4] = second compound 0.1 µM, first compound 0.03 µM
[5] = second compound 0.1 µM, first compound 0.0949 µM
[6] = second compound 0.1 µM, first compound 0.3 µM
[7] = second compound 0.316 µM, first compound 0.000949 µM
[8] = second compound 0.316 µM, first compound 0.003 µM
[9] = second compound 0.316 µM, first compound 0.00949 µM
[10] = second compound 0.316 µM, first compound 0.03 µM
[11] = second compound 0.316 µM, first compound 0.0949 µM
[12] = second compound 0.316 µM, first compound 0.3 µM
[13] = second compound 1 µM, first compound 0.000949 µM
[14] = second compound 1 µM, first compound 0.003 µM
[15] = second compound 1 µM, first compound 0.00949 µM
[16] = second compound 1 µM, first compound 0.03 µM
[17] = second compound 1 µM, first compound 0.0949 µM
[18] = second compound 1 µM, first compound 0.3 µM
[19] = second compound 3.16 µM, first compound 0.000949 µM
[20] = second compound 3.16 µM, first compound 0.003 µM
[21] = second compound 3.16 µM, first compound 0.00949 µM
[22] = second compound 3.16 µM, first compound 0.03 µM
[23] = second compound 3.16 µM, first compound 0.0949 µM
[24] = second compound 3.16 µM, first compound 0.3 µM
[25] = second compound 10 µM, first compound 0.000949 µM
[26] = second compound 10 µM, first compound 0.003 µM
[27] = second compound 10 µM, first compound 0.00949 µM
[28] = second compound 10 µM, first compound 0.03 µM
[29] = second compound 10 µM, first compound 0.0949 µM
[30] = second compound 10 µM, first compound 0.3 µM

CC(C)CC(NC(=O)C(Cc1ccccc1)NC(=O)c1cnccn1)B(O)O (stereo not given) + Cc1ccccc1N=Nc1ccc(NC(=O)c2ccnn2C)c(C)c1
IC50 (second compound 0.1 µM): 5.48 nM | IC50 (second compound 0.316 µM): 5.4 nM | IC50 (second compound 1 µM): 5.73 nM | IC50 (second compound 3.16 µM): 5.73 nM | IC50 (second compound 10 µM): 6.76 nM | viability, T/C [1]: 105% | viability, T/C [2]: 97% | viability, T/C [3]: 7.2% | viability, T/C [4]: 1.26% | viability, T/C [5]: 0.41% | viability, T/C [6]: 0.31% | viability, T/C [7]: 91.4% | viability, T/C [8]: 90.3% | viability, T/C [9]: 11.3% | viability, T/C [10]: 0.73% | viability, T/C [11]: 11.2% | viability, T/C [12]: 6.11% | viability, T/C [13]: 123% | viability, T/C [14]: 101% | viability, T/C [15]: 10.2% | viability, T/C [16]: 1.95% | viability, T/C [17]: 1.1% | viability, T/C [18]: 0.56% | viability, T/C [19]: 92.9% | viability, T/C [20]: 89.4% | viability, T/C [21]: 19.4% | viability, T/C [22]: 1.27% | viability, T/C [23]: 0.6% | viability, T/C [24]: 0.68% | viability, T/C [25]: 93.1% | viability, T/C [26]: 99.5% | viability, T/C [27]: 30.8% | viability, T/C [28]: 2.17% | viability, T/C [29]: 0.87% | viability, T/C [30]: 0.59%

CCc1c2c(nc3ccc(O)cc13)-c1cc3c(c(=O)n1C2)COC(=O)[C@]3(O)CC + Cc1ccccc1N=Nc1ccc(NC(=O)c2ccnn2C)c(C)c1
IC50 (second compound 0.1 µM): 300 nM | IC50 (second compound 0.316 µM): 67.1 nM | IC50 (second compound 1 µM): 210 nM | IC50 (second compound 3.16 µM): > 300 nM | IC50 (second compound 10 µM): 78.8 nM | viability, T/C [1]: 72.5% | viability, T/C [2]: 99% | viability, T/C [3]: 64% | viability, T/C [4]: 56.2% | viability, T/C [5]: 47.7% | viability, T/C [6]: 54.7% | viability, T/C [7]: 90.9% | viability, T/C [8]: 85.4% | viability, T/C [9]: 72.4% | viability, T/C [10]: 54.2% | viability, T/C [11]: 46.4% | viability, T/C [12]: 48.7% | viability, T/C [13]: 81.7% | viability, T/C [14]: 74.3% | viability, T/C [15]: 72.5% | viability, T/C [16]: 55% | viability, T/C [17]: 59.6% | viability, T/C [18]: 46.5% | viability, T/C [19]: 79.7% | viability, T/C [20]: 85.6% | viability, T/C [21]: 77.1% | viability, T/C [22]: 63.6% | viability, T/C [23]: 54.3% | viability, T/C [24]: 52.7% | viability, T/C [25]: 82% | viability, T/C [26]: 82.7% | viability, T/C [27]: 83.9% | viability, T/C [28]: 59.6% | viability, T/C [29]: 47.5% | viability, T/C [30]: 48.9%

Nc1ccccc1NC(=O)c1ccc(CNC(=O)OCc2cccnc2)cc1 + Cc1ccccc1N=Nc1ccc(NC(=O)c2ccnn2C)c(C)c1
IC50 (second compound 0.1 µM): 1860 nM | IC50 (second compound 0.316 µM): 2770 nM | IC50 (second compound 1 µM): 2110 nM | IC50 (second compound 3.16 µM): 1740 nM | IC50 (second compound 10 µM): 1460 nM | viability, T/C (second compound 0.1 µM, first compound 0.0316 µM): 76.7% | viability, T/C (second compound 0.1 µM, first compound 0.1 µM): 135% | viability, T/C (second compound 0.1 µM, first compound 0.316 µM): 91% | viability, T/C (second compound 0.1 µM, first compound 1 µM): 62.1% | viability, T/C (second compound 0.1 µM, first compound 3.16 µM): 41.5% | viability, T/C (second compound 0.1 µM, first compound 10 µM): 13.6% | viability, T/C (second compound 0.316 µM, first compound 0.0316 µM): 90.2% | viability, T/C (second compound 0.316 µM, first compound 0.1 µM): 103% | viability, T/C (second compound 0.316 µM, first compound 0.316 µM): 93.8% | viability, T/C (second compound 0.316 µM, first compound 1 µM): 86% | viability, T/C (second compound 0.316 µM, first compound 3.16 µM): 45.3% | viability, T/C (second compound 0.316 µM, first compound 10 µM): 18% | viability, T/C (second compound 1 µM, first compound 0.0316 µM): 101% | viability, T/C (second compound 1 µM, first compound 0.1 µM): 100% | viability, T/C (second compound 1 µM, first compound 0.316 µM): 90.7% | viability, T/C (second compound 1 µM, first compound 1 µM): 63.1% | viability, T/C (second compound 1 µM, first compound 3.16 µM): 43.7% | viability, T/C (second compound 1 µM, first compound 10 µM): 19.9% | viability, T/C (second compound 3.16 µM, first compound 0.0316 µM): 119% | viability, T/C (second compound 3.16 µM, first compound 0.1 µM): 120% | viability, T/C (second compound 3.16 µM, first compound 0.316 µM): 90.2% | viability, T/C (second compound 3.16 µM, first compound 1 µM): 64.3% | viability, T/C (second compound 3.16 µM, first compound 3.16 µM): 36.5% | viability, T/C (second compound 3.16 µM, first compound 10 µM): 23.7% | viability, T/C (second compound 10 µM, first compound 0.0316 µM): 89% | viability, T/C (second compound 10 µM, first compound 0.1 µM): 94% | viability, T/C (second compound 10 µM, first compound 0.316 µM): 86.6% | viability, T/C (second compound 10 µM, first compound 1 µM): 52.6% | viability, T/C (second compound 10 µM, first compound 3.16 µM): 41.2% | viability, T/C (second compound 10 µM, first compound 10 µM): 22.8%
